According to US20220281876A1, “DEGRADATION OF BRUTON'S TYROSINE KINASE (BTK) BY CONJUGATION OF BTK INHIBITORS WITH E3 LIGASE LIGAND AND METHODS OF USE” (BEIGENE, LTD., priority 2019, published 2022):

molecular target: T1, BTK (Homo sapiens, UniProt Q06187); assay: BTK cell degradation in Ramos cells (total BTK ELISA); type: cell-based; conditions: 16 h incubation, FastScan total BTK ELISA
T1 construct: endogenous in cells; host or cells: Ramos cells
Procedure, shortened: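 Ramos cells were treated for 16 h with compounds (7 doses, 5-fold dilution series, 0.1% DMSO). Total BTK in cell lysates was quantified by sandwich ELISA with TMB read-out at 450 nm.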

T1 sequence (Q06187 whole entry): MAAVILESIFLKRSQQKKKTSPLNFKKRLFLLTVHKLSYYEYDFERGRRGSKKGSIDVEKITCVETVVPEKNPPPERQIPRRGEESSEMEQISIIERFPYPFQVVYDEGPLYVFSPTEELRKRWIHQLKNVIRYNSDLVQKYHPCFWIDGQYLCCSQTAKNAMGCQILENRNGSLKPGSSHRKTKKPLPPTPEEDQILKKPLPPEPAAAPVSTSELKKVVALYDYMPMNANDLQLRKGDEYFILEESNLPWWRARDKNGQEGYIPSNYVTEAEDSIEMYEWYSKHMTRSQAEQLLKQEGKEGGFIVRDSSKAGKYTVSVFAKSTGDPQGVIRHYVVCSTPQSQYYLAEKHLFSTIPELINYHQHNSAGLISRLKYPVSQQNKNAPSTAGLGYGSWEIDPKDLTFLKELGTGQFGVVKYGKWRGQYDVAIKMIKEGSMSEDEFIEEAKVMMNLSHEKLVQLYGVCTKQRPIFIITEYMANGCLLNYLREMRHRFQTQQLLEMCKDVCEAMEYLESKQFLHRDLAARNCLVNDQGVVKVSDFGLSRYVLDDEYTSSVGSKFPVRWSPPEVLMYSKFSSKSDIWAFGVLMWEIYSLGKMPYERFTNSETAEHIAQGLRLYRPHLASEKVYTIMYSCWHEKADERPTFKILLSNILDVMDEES

SMILES	DC50
NC(=O)c1c(-c2ccc(Oc3ccccc3)cc2)nn2c1NCC[C@H]2C1CCN(C(=O)CCCN2CCN(C(=O)CNc3ccc4c(c3)C(=O)N(C3CCC(=O)NC3=O)C4=O)CC2)CC1 (stereo partly drawn) [Example 152, (7S)-7-(1-(4-(4-((2-(2,6-dioxopiperidin-3-yl)-1,3-dioxoisoindolin-5-yl)glycyl)piperazin-1-yl)butanoyl)piperidin-4-yl)-2-(4-phenoxyphenyl)-4,5,6,7-tetrahydropyrazolo[1,5-a]pyrimidine-3-carboxamide]	35 nM
NC(=O)c1c(-c2ccc(Oc3ccccc3)cc2)nn2c1NCC[C@H]2C1CCN(C(=O)c2cn(CCOCCOCCOCCOCCOCCOCCOCCNc3cccc4c3C(=O)N(C3CCC(=O)NC3=O)C4=O)nn2)CC1 (stereo partly drawn) [Example 17, (7S)-7-(1-(1-(23-((2-(2,6-dioxopiperidin-3-yl)-1,3-dioxoisoindolin-4-yl)amino)-3,6,9, 12, 15, 18, 21-heptaoxatricosyl)-1H-1,2,3-triazole-4-carbonyl)piperidin-4-yl)-2-(4-phenoxyphenyl)-4,5,6,7-tetrahydropyrazolo[1,5-a]pyrimidine-3-carboxamide]	> 10000 nM
NC(=O)c1c(-c2ccc(Oc3ccccc3)cc2)nn2c1NCC[C@H]2C1CCN(C(=O)CCN2CCN(c3ccc(CNC(=O)CCN4C(=O)CCC(N5Cc6c(N)cccc6C5=O)C4=O)cc3)CC2)CC1 (stereo partly drawn) [Example 56, (7S)-7-(1-(3-(4-(4-((3-(3-(4-amino-1-oxoisoindolin-2-yl)-2,6-dioxopiperidin-1-yl)propanamido)methyl)phenyl)piperazin-1-yl)propanoyl)piperidin-4-yl)-2-(4-phenoxyphenyl)-4,5,6,7-tetrahydropyrazolo[1,5-a]pyrimidine-3-carboxamide]	2360 nM
